Earlier results, collected in patent publication US11497806B2, “Immunization agents and methods of use” (priority 2014, dated 2022).
Like-named read-outs stand apart in the source and are kept apart here.

Key:
transactivator = target: T1, transactivator (Homo sapiens, UniProt P06401); details: rats
T1 construct: host or cells: rat (in vivo)

luciferase target gene = details: heat treatment in the presence but not in the absence of mifepristone; FIG. 2

T1 sequence (P06401 640-891, added parts left off): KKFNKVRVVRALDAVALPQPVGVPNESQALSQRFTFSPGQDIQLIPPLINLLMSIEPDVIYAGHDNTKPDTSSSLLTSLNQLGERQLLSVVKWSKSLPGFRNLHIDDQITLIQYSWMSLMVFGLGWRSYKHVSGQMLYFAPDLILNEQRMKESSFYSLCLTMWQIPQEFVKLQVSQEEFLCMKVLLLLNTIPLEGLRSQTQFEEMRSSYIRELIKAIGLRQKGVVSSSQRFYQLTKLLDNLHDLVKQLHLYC

For `CC#C[C@]1(O)CC[C@H]2[C@@H]3CCC4=CC(=O)CCC4=C3[C@@H](c3ccc(N(C)C)cc3)C[C@@]21C` [mifepristone], the “Amount reaching an effective concentration” value (transactivator; i.p.) is given as 5 µg/kg, the “Amount reaching an effective concentration” value (transactivator; orally) is given as “about 10 μg/kg” and the “Target gene expression after heat treatment” value (luciferase target gene) is given as “resulted in activation of target gene expression”.
